From patent publication US7713937B2, “Synthetic peptide amides and dimeric forms thereof” (Cara Therapeutics, Inc., priority 2006, dated 2010) come the findings set out here.

The target in experiment [1] is T1, mouse kappa opioid receptor (mKOR) (Mus musculus, UniProt P33534).
T1 construct: Stimulation of Endogenous Mouse Kappa-Opioid Receptor in R1.G1 Cells; host or cells: R1.G1 mouse thymoma cells
Put plainly: cell-based. Conditions: for Emax: read-out: mKOR Efficacy(%).

The target in experiment [2] is T2, human kappa opioid receptor (hKOR) (Homo sapiens, UniProt P41145).
T2 construct: expressed in transfected cells; host or cells: HEK-293 cells, transient transfection with Fugene6
T2 sequence (P41145 whole entry): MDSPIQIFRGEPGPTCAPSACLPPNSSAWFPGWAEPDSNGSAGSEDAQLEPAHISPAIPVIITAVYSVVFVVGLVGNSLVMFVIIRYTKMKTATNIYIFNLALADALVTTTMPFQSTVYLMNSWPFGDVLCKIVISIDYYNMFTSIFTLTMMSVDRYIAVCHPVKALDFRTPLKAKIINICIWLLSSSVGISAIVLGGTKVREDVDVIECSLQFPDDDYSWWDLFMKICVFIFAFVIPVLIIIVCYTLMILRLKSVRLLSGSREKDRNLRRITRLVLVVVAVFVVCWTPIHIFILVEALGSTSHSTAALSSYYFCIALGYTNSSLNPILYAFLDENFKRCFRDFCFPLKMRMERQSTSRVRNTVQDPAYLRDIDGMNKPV
Put plainly: cell-based. Conditions: for Emax: HEK293, read-out: hKOR Efficacy(%).

SMILES strings stand for the structures. Square brackets hold non-standard residues; d marks the D form. Peptide text beside a SMILES is read from it. dOrn = NCCC[C@@H](N)C(=O)O; Inp = O=C(O)C1CCNCC1

T1 sequence (P33534 whole entry): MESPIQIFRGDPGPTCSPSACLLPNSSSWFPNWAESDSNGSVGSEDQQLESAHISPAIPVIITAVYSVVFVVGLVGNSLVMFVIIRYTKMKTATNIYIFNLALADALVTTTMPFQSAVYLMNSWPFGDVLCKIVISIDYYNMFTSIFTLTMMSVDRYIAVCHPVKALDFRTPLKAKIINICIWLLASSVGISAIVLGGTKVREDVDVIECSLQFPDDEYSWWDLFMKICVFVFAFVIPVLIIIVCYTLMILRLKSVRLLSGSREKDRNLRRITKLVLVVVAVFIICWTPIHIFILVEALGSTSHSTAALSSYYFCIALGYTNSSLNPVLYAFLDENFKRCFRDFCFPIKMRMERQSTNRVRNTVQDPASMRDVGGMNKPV

By EC50 is commonly meant the concentration needed to bring the measured effect to its halfway point. Low values mean a more potent agent, high ones a less potent agent. As to `CC(C)C[C@@H](NC(=O)[C@@H](Cc1ccccc1)NC(=O)[C@H](N)Cc1ccccc1)C(=O)N[C@H](CCCCN)C(=O)NCc1cn2ccccc2n1` [Compound (34), D-Phe-D-Phe-D-Leu-D-Lys-[imidazo[1,2-a]pyridine-2-ylmethyl amide]], the EC50 in experiment [1] worked out at 354 pM; in experiment [2], 20.8 pM. Besides, the Emax was 90% in experiment [1] and 101% in experiment [2].

With `Cc1cnc(CNC(=O)[C@@H](CCCCN)NC(=O)[C@@H](CC(C)C)NC(=O)[C@@H](Cc2ccccc2)NC(=O)[C@H](N)Cc2ccccc2)cn1` [Compound (35), D-Phe-D-Phe-D-Leu-D-Lys-[(5-methylpyrazin-2-yl)methyl amide]], the EC50 in experiment [1] came to 35.9 pM; in experiment [2], 6.4 pM.

In the case of `CC(C)C[C@@H](NC(=O)[C@@H](Cc1ccccc1)NC(=O)[C@H](N)Cc1ccccc1)C(=O)N[C@H](CCCCN)C(=O)N1CCC(n2c(=O)[nH]c3ccccc32)CC1` [Compound (36), D-Phe-D-Phe-D-Leu-D-Lys-[1-(piperidin-4-yl)-1H-benzo[d]imidazol-2(3H)-one amide]], the Emax worked out at 87% in experiment [1] and 100% in experiment [2].

With `CC(C)C[C@@H](NC(=O)[C@@H](Cc1ccccc1)NC(=O)[C@H](N)Cc1ccccc1)C(=O)N[C@H](CCCCN)C(=O)N1CCc2[nH]ncc2C1` [Compound (37), D-Phe-D-Phe-D-Leu-D-Lys-[4,5,6,7-tetrahydro-1H-pyrazolo[4,3-c]pyridine amide]], in experiment [1], a half-maximal effect (EC50) was put at 23.4 pM and the Emax was found to be 90%. For the same compound, in experiment [2], the EC50 came to 5.2 pM and the Emax was 100%.

For the compound `CC(C)C[C@@H](NC(=O)[C@@H](Cc1ccccc1)NC(=O)[C@H](N)Cc1ccccc1)C(=O)N[C@H](CCCN)C(=O)NCCN1CCN(CC(=O)O)CC1` [Compound (38), D-Phe-D-Phe-D-Leu-D-Orn-[4-(2-aminoethyl)-1-carboxymethyl-piperazine]-OH], in experiment [1], the response was half-maximal at 403 pM (EC50) and the Emax was 98%. The Emax in experiment [2] is 102%.

In the case of `CC(C)C[C@@H](NC(=O)[C@@H](Cc1ccccc1)NC(=O)[C@H](N)Cc1ccccc1)C(=O)N[C@H](CCCN)C(=O)N1CCC(CC(=O)O)CC1` [Compound (39), D-Phe-D-Phe-D-Leu-D-Orn-[4-carboxymethyl-piperidine]-OH], in experiment [1], the EC50 was 80 pM and the Emax stood at 97%. In addition, in experiment [2], the midpoint of the response, the EC50, lay at 120 pM and the Emax stood at 99%.

As for `CC(C)C[C@@H](NC(=O)[C@@H](Cc1ccccc1)NC(=O)[C@H](N)Cc1ccccc1)C(=O)N[C@H](CCCN)C(=O)N1CCC(N)(C(=O)O)CC1` [Compound (43), D-Phe-D-Phe-D-Leu-D-Orn-[ω(4-aminopiperidine-4-carboxylic acid)]-OH], the EC50 in experiment [1] worked out at 41 pM; in experiment [2] it was 140 pM. In addition, the Emax in experiment [1] was 100%; in experiment [2], 107%.

Consider `CC(C)C[C@@H](NC(=O)[C@@H](Cc1ccccc1)NC(=O)[C@H](N)Cc1ccccc1)C(=O)N[C@H](CCCN)C(=O)N1CCC(CC(N)C(=O)O)CC1` (stereo partly drawn) [Compound (44), D-Phe-D-Phe-D-Leu-D-Orn-[ω(D/L-2-amino-3-(4-N-piperidinyl)propionic acid)]-OH], for which, in experiment [1], the midpoint of the response, the EC50, lay at 28 pM and the Emax was 102%. For the same compound, in experiment [2], the EC50 amounted to 130 pM and the Emax is 104%.

Take `CC(C)C[C@@H](NC(=O)[C@@H](Cc1ccccc1)NC(=O)[C@H](N)Cc1ccccc1)C(=O)N[C@H](CCCN)C(=O)N1CCNC(C(=O)O)C1` (stereo partly drawn) [Compound (45), D-Phe-D-Phe-D-Leu-D-Orn-[ω(D/L-4-piperazine-2-carboxylic acid)]-OH]: the EC50 is 197 pM in experiment [1] and 150 pM in experiment [2]. Further, the values for the Emax in experiment [1] and in experiment [2] were 102% and 93%, respectively.

With `CC(C)C[C@@H](NC(=O)[C@@H](Cc1ccccc1)NC(=O)[C@H](N)Cc1ccccc1)C(=O)N[C@H](CCCN)C(=O)N1CCC(C(=O)O)CC1` [Compound (46), D-Phe-D-Phe-D-Leu-D-Orn-[Isonipecotic acid]-OH] (H-[dF][dF][dL][dOrn][Inp]-OH), the results for the EC50 in experiment [1] and in experiment [2] were 88 pM and 280 pM, respectively. For the same compound, the values for the Emax in experiment [1] and in experiment [2] were 92% and 128%, respectively.

Regarding `CC(C)C[C@@H](NC(=O)[C@@H](Cc1ccccc1)NC(=O)[C@H](N)Cc1ccccc1)C(=O)N[C@H](CCCN)C(=O)N1CCC(N2CCC[C@H]2C(=O)O)CC1` [Compound (47), D-Phe-D-Phe-D-Leu-D-Orn-[N-(4-piperidinyl)-L-proline]-OH], in experiment [1], a half-maximal effect (EC50) was put at 85 pM and the Emax came out at 99%. Further, in experiment [2], a half-maximal response (EC50) required 170 pM and the Emax was found to be 92%.

For the compound `CC(C)C[C@@H](NC(=O)[C@@H](Cc1ccccc1)NC(=O)[C@H](N)Cc1ccccc1)C(=O)N[C@H](CCCN)C(=O)N1CCC(CCCC(=O)O)CC1` [Compound (48), D-Phe-D-Phe-D-Leu-D-Orn-[4-(4-piperidinyl)-butanoic acid]-OH], in experiment [1], a half-maximal response (EC50) required 92 pM and the Emax came out at 100%. Further, in experiment [2], the response was half-maximal at 260 pM (EC50) and the Emax worked out at 97%.

For `CC(C)C[C@@H](NC(=O)[C@@H](Cc1ccccc1)NC(=O)[C@H](N)Cc1ccccc1)C(=O)N[C@H](CCCN)C(=O)NCCN1CCN(CC(N)=O)CC1` [Compound (49), D-Phe-D-Phe-D-Leu-D-Orn-[4-(2-aminoethyl)-1-carboxymethyl-piperazine]-NH2], in experiment [1], a half-maximal response (EC50) required 115 pM and the Emax came out at 96%. Moreover, in experiment [2], it took 220 pM to reach a half-maximal effect (EC50) and the Emax amounted to 96%.

In the case of `CC(C)C[C@@H](NC(=O)[C@@H](Cc1ccccc1)NC(=O)[C@H](N)Cc1ccccc1)C(=O)N[C@H](CCCN)C(=O)N1CCC(N2CCC[C@H]2C(N)=O)CC1` [Compound (50), D-Phe-D-Phe-D-Leu-D-Orn-[N-(4-piperidinyl)-L-proline]-NH2], the EC50 in experiment [1] was 22 pM; in experiment [2], 190 pM. Also, the Emax in experiment [1] was determined as 96%.

For the compound `CCN1CCCN(C(=O)[C@@H](CCCN)NC(=O)[C@@H](CC(C)C)NC(=O)[C@@H](Cc2ccccc2)NC(=O)[C@H](N)Cc2ccccc2)CC1` [Compound (55), D-Phe-D-Phe-D-Leu-D-Orn-[4-ethylhomopiperazine amide]], in experiment [1], the EC50 is 49 pM and the Emax turned out to be 99%. Moreover, in experiment [2], the response was half-maximal at 140 pM (EC50) and the Emax worked out at 93%.

Consider `CC(C)C[C@@H](NC(=O)[C@@H](Cc1ccccc1)NC(=O)[C@H](N)Cc1ccccc1)C(=O)N[C@H](CCCN)C(=O)N1CCCNCC1` [Compound (56), D-Phe-D-Phe-D-Leu-D-Orn-[homopiperazine amide]], for which, in experiment [1], the EC50 turned out to be 80 pM and the Emax is 100%. This compound also came in with an EC50 in experiment [2] of 220 pM.

Turning to `CNCCC[C@@H](NC(=O)[C@@H](CC(C)C)NC(=O)[C@@H](Cc1ccccc1)NC(=O)[C@H](N)Cc1ccccc1)C(=O)N1CCCN(C(=N)N)CC1` [Compound (57), D-Phe-D-Phe-D-Leu-(δ-Me)D-Orn-[4-amidinohomopiperazine amide]], the EC50 turned out to be 78 pM in experiment [1] and 90 pM in experiment [2]. In addition, the Emax in experiment [1] was found to be 97%; in experiment [2], 101%.

As for `CC(C)C[C@@H](NC(=O)[C@@H](Cc1ccccc1)NC(=O)[C@H](N)Cc1ccccc1)C(=O)N[C@H](CCCNC(C)C)C(=O)N1CCC(N)(C(=O)O)CC1` [Compound (58), D-Phe-D-Phe-D-Leu-(δ-iPr)D-Orn-[ω(4-aminopiperidine-4-carboxylic acid)]-OH], the EC50 worked out at 193 pM in experiment [1] and 120 pM in experiment [2]. Further, the Emax in experiment [1] turned out to be 92%.

In the case of `CC(C)C[C@@H](NC(=O)[C@@H](Cc1ccccc1)NC(=O)[C@H](N)Cc1ccccc1)C(=O)N[C@H](CCCNC(C)C)C(=O)N1CCCN(C(=N)N)CC1` [Compound (59), D-Phe-D-Phe-D-Leu-(δ-iPr)D-Orn-[4-amidinohomopiperazine amide]], in experiment [1], the EC50 came out at 81 pM and the Emax amounted to 97%. Further, in experiment [2], the EC50 is 80 pM and the Emax turned out to be 100%.

For the compound `CNCCC[C@@H](NC(=O)[C@@H](CC(C)C)NC(=O)[C@@H](Cc1ccccc1)NC(=O)[C@H](N)Cc1ccccc1)C(=O)N1CCCNCC1` [Compound (60), D-Phe-D-Phe-D-Leu-(δ-Me)D-Orn-[homopiperazine amide]], the figures for the EC50 in experiment [1] and in experiment [2] were 45 pM and 90 pM, respectively. For the same compound, the Emax in experiment [1] is 95%; in experiment [2], 106%.

For the compound `CC(C)C[C@@H](NC(=O)[C@@H](Cc1ccccc1)NC(=O)[C@H](N)Cc1ccccc1)C(=O)N[C@H](CCCNC(C)C)C(=O)N1CCCNCC1` [Compound (61), D-Phe-D-Phe-D-Leu-(δ-iPr)D-Orn-[homopiperazine amide]], in experiment [1], a half-maximal response (EC50) required 33 pM and the Emax worked out at 96%. Besides, in experiment [2], a half-maximal effect (EC50) was put at 70 pM and the Emax was found to be 98%.

In the case of `CC(C)C[C@@H](NC(=O)[C@@H](Cc1ccccc1)NC(=O)[C@H](N)Cc1ccccc1)C(=O)N[C@H](CCCCN)C(=O)NCC1OCCO1` [Compound (62)], the EC50 was determined as 147 pM in experiment [1] and 21 pM in experiment [2]. Also, the Emax came out at 85% in experiment [1] and 98% in experiment [2].

As to `CC(C)C[C@@H](NC(=O)[C@@H](Cc1ccccc1)NC(=O)[C@H](N)Cc1ccccc1)C(=O)N[C@H](CCCCN)C(=O)N1CCN(c2ncccn2)CC1` [Compound (63), D-Phe-D-Phe-D-Leu-D-Lys-[2-(piperazin-1-yl)pyrimidine amide]], the EC50 in experiment [1] is 120 pM; in experiment [2] it was 7.3 pM. Also, the Emax in experiment [1] came to 78%; in experiment [2] it was 98%.

Take `CC(C)C[C@@H](NC(=O)[C@@H](Cc1ccccc1)NC(=O)[C@H](N)Cc1ccccc1)C(=O)N[C@H](CCCCN)C(=O)N1CCN(c2cnccn2)CC1` [Compound (64), D-Phe-D-Phe-D-Leu-D-Lys-[2-(piperazin-1-yl)pyrazine amide]]: the Emax in experiment [1] was determined as 85%. Moreover, in experiment [2], the EC50 worked out at 29.3 pM and the Emax is 100%.
